System: Human non-small-cell lung cancer cell line A549
Test: Combination use of E7080 and docetaxel in subcutaneous transplanted models (in vivo) of A549
Conditions: alone, A549 subcutaneous transplant, nude mouse
Description: Human non-small-cell lung cancer cell line A549 (purchased from Dainippon Sumitomo Pharma Co., Ltd) was cultured in RPMI1640 (containing 10% FBS) in a 5% carbon dioxide gas incubator at 37° C. to about 80% confluence, and then the cells were treated with trypsin-EDTA and then collected. A 1×10^8 cells/mL suspension was prepared with a phosphate buffer, which was further added with an equivalent amount of matrigel matrix to give a 5×10^7 cells/mL suspension, and each 0.1 mL of the resulting cell suspension was subcutaneously transplanted to a nude mouse at the side of its body. Fourteen days after the transplantation, 4-(3-chloro-4-(cyclopropylaminocarbonyl)aminophenoxy)-7-methoxy-6-quinolinecarboxamide (hereinafter, also referred to as “E7080”) was orally administered for 10 or 30 mg/kg, once a day for four weeks, while 15 mg/kg of docetaxel was intravenously administered alone or in combination every four days for three times. The major and minor axes of tumors were measured with Digimatic caliper (Mitsutoyo Corporation), and tumor volumes and relative tumor volumes were calculated according to the following formulae:
Tumor Volume (TV)=Major axis of tumor (mm)×(Minor axis of tumor)^2 (mm^2)/2
Relative Tumor Volume (RTV)=Tumor volume on measurement day/Tumor volume on the first administration day.

In the case of COc1cc2nccc(Oc3ccc(NC(=O)NC4CC4)c(Cl)c3)c2cc1C(N)=O [E7080, 4-(3-chloro-4-(cyclopropylaminocarbonyl)aminophenoxy)-7-methoxy-6-quinolinecarboxamide], the “Relative tumor volume on Day 29, Average ± standard deviation” value (E7080 10 mg/kg orally once a day for four weeks) is reported as 1.47 ± 0.16 and the “Relative tumor volume on Day 29, Average ± standard deviation” value (E7080 30 mg/kg orally once a day for four weeks) is reported as 1.14 ± 0.30.

In the case of CC(=O)O[C@@]12CO[C@@H]1C[C@H](O)[C@@]1(C)C(=O)[C@H](O)C3=C(C)[C@@H](OC(=O)[C@H](O)[C@@H](NC(=O)OC(C)(C)C)c4ccccc4)C[C@@](O)([C@@H](OC(=O)c4ccccc4)[C@H]21)C3(C)C [Docetaxel, docetaxel, reference compound], the “Relative tumor volume on Day 29, Average ± standard deviation” value (Docetaxel 15 mg/kg intravenously every four days for three times) is reported as 1.48 ± 0.29.

From US20100324087A1, “COMBINED USE OF ANGIOGENESIS INHIBITOR AND TAXANE” (EISAI R&D MANAGEMENT CO., LTD., priority 2008, published 2010)
